According to ChEMBL document CHEMBL5137028, “Progress and Challenges in Targeting the SARS-CoV-2 Papain-like Protease” (J Med Chem, 2022):
pEC50: −log10 of the molar value.

system: SARS-CoV-2; assay: Antiviral activity against SARS-CoV-2 nCoV-2019BetaCoV/Wuhan/WIV04/2019 infected in African green monkey Vero E6 cells assessed as viral growth inhibition pretreated for 1 hr followed by infection at MOI of 0.01 and replacement of fresh medium containing compound measured after 24 hrs by plaque reduction assay; type: functional, organism-based; settings: Severe acute respiratory syndrome coronavirus 2, nCoV-2019BetaCoV/Wuhan/WIV04/2019, Vero C1008

SMILES | pEC50
C[C@H]1COC2=C1C(=O)C(=O)c1c2ccc2c1CCCC2(C)C [CRYPTOTANSHINONE] | 6.15
COCC[n+]1c2c(n(Cc3cnccn3)c1C)C(=O)c1ccccc1C2=O [SEPANTRONIUM BROMIDE] | 6.77
Cc1coc2c1C(=O)C(=O)c1c-2ccc2c(C)cccc12 [TANSHINONE I] | 5.65
